Starred links: 1 amine or outer side, 2 acyl side, 3 side chain; linkers in the order of their positions; H or OH if unused. Non-standard residues stand in square brackets, D forms with d. Residues, ends and D or L forms follow the SMILES beside them. *: point of attachment. Acetyl(2-STrt) = O=C(CSC(c1ccccc1)(c1ccccc1)c1ccccc1)*; X1 = Oc1ccc(NC(=S)[*:2])cc1N[*:1]; Nle = CCCC[C@H](N)C(=O)O; Ahx = NCCCCCC(=O)O; βAla = NCCC(=O)O
Biological target: T1, Gastrin/cholecystokinin type B receptor (Homo sapiens) (UniProt P32239)
T1 sequence (whole entry): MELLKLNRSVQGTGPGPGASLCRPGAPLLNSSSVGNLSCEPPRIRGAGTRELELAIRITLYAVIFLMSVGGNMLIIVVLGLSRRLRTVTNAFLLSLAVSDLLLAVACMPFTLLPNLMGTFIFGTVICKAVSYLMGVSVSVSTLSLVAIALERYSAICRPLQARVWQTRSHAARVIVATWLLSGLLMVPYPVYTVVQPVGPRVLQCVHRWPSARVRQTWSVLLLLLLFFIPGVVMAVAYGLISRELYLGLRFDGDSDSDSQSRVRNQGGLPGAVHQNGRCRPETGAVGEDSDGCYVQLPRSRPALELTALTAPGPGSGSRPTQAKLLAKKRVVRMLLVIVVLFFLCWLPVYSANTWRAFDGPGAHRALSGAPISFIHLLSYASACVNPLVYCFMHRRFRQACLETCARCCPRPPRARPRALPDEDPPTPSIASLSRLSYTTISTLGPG
Experiment: Agonist activity at human CCK2 receptor expressed in COS7 cells assessed as stimulation of [3H]inositol phosphate formation
Format: functional, cell-based
Conditions: COS-7

ED50 [nM]	SMILES
5.01	CCCC[C@H](NC(=O)[C@H](Cc1c[nH]c2ccccc12)NC(=O)CCCCCNC(=O)CCCCCNC(=S)Nc1ccc(O)c(NC(=O)CNC(=O)CSC(c2ccccc2)(c2ccccc2)c2ccccc2)c1)C(=O)N[C@@H](CC(=O)O)C(=O)N[C@@H](Cc1ccccc1)C(N)=O ({Acetyl(2-STrt)}-G[X1][Ahx][Ahx]W[Nle]DF-NH2)
3.1	CCCC[C@H](NC(=O)[C@H](Cc1c[nH]c2ccccc12)NC(=O)CCNC(=O)CCNC(=S)Nc1ccc(O)c(NC(=O)CNC(=O)CSC(c2ccccc2)(c2ccccc2)c2ccccc2)c1)C(=O)N[C@@H](CC(=O)O)C(=O)N[C@@H](Cc1ccccc1)C(N)=O ({Acetyl(2-STrt)}-G[X1][βAla][βAla]W[Nle]DF-NH2)
84.5	CCCC[C@H](NC(=O)[C@H](Cc1c[nH]c2ccccc12)NC(=S)Nc1ccc(O)c(NC(=O)CNC(=O)CSC(c2ccccc2)(c2ccccc2)c2ccccc2)c1)C(=O)N[C@@H](CC(=O)O)C(=O)N[C@@H](Cc1ccccc1)C(=O)O ({Acetyl(2-STrt)}-G[X1]W[Nle]DF-OH)

Source: ChEMBL document CHEMBL1154386, “Synthesis, characterization and in vitro evaluation of new oxorhenium- and oxotechnetium-CCK4 derivatives as molecular imaging agents for CCK2-receptor targeting” (Eur J Med Chem, 2010)
